Patent publication US6878751B1, “Administration of resveratrol to treat inflammatory respiratory disorders” (Imperial College of Science Technology and Medicine, priority 2000, dated 2005)

What was measured:
[1] = system: GM-CSF release, A549 cells; assay: GM-CSF release (sandwich assay) in IL-1β stimulated A549 cells; assay type: cell-based; conditions: Homo sapiens, 1 ng/ml IL-1β, read-out: EC50 for inhibition of GM-CSF release
Method: (§1) The human airway epithelial cell line A549 may be employed to study resveratrol inhibition of the release of IL-8 (interleukin 8) and GM-CSF (granulocyte macrophage-colony stimulating factor) by a 1 ng/ml stimulation with IL-1β (interleukin 1β). A549 cells, BEAS-2B cells and 16HBE-16o^− cells were stimulated with 1 ng/ml levels of IL-1β in the presence of resveratrol.
(§2) Cells, including the A549 cells, were cultured in Dulbecco's modified Eagle's medium (DMEM) 10% (v/v) fetal calf serum (FCS), 100 μg/ml penicillin and 100 μg/ml streptomycin. IL-8 release was measured by commercially available ELISA kit (R&D Systems).
GM-CSF release was measured in culture media by sandwich assay employing rat monoclonal capture antibody (Ab, mAb) against GM-CSF and a biotinylated rat anti-human GM-CSF mAb. The rat capture mAb against GM-CSF, diluted 1:500 in 0.1 M NaHCO3, was coated overnight at 4° C. onto 96 well plates. After washing, with wash buffer (NaCl: 145 mM, KCl: 4 mM, NaH2PO4: 10 mM, Tween-20: 0.05% (v/v), pH: 7.4) the plates were blocked by application of 10% (v/v) FCS at room temperature for 2 hours. After washing, samples and standards were added to the well plates and incubated at 4° C. overnight. […]

[2] = system: Steroid naive patients suffering from COPD; assay: Oral or inhaled resveratrol vs inhaled glucocorticoids in COPD, steroid naive patients (Example 5); assay type: in vivo, human; conditions: 12 to 24 months
From the text: Steroid naive patients suffering from different COPDs patients are selected and divided into populations according to the COPD. Chronic bronchitis populations and emphysema populations are appropriately studied. The populations are divided in terms of progression of their COPD into subpopulations early or mild, mid-stage or moderate, and advanced impairment of lung function. The study is generally patterned after the asthma studies with modifications appropriate to the clinical and histopathologic evaluation of COPD disease, and the references listed in the preceding examples may be applied as appropriate. One major difference is that the COPD study should last for 1 to 2 years or longer, because of the chronic nature of COPD. Each subpopulation is divided equally and randomly into three groups. […]
Patients are medically monitored for clinical symptoms of COPD throughout the study, including frequency and severity of hypoxemic and respiratiry acidotic exacerbations. […] In addition exhaled nitric oxide (NO) and carbon monoxide (CO) levels may be measured at more frequent intervals, such as every other week. Forced expiratory volume (FEV) and forced inspiratory volume (FIV) are also evaluated to measure airway patency as a direct measure of clinical morbidity and to determine correlation the histopathologic and other indicators of clinical disease. […]

IL-8 release, A549 cells = assay: IL-8 release (ELISA) in IL-1β stimulated A549 cells; assay type: cell-based; conditions: Homo sapiens, 1 ng/ml IL-1β, read-out: EC50 for inhibition of the release of IL-8
Method: as §1, §2

Patients with asthma = assay: Pulmonary resveratrol clinical evaluation in asthma (Example 4); assay type: in vivo, human; conditions: inhaled, 4, 8 or 20 mg/day, about six months
Method: Resveratrol is evaluated clinically for efficacy in treating asthma when administered pulmonarily. The methods of the following references are generally used in the evaluation of asthmatic disease: Wohl et al. (2000) N. Engl. J. Med. 343(15):1113-4; Agertoft et al. (2000) N. Engl. J. Med 343(15):1064-9. Patients with asthma are treated once or more per day with inhalator delivered pulmonary administered doses of resveratrol. Patients are divided randomly and blindly into approximately equal groups that receive either 0 (placebo), 4, 8, or 20 mg/day resveratrol in inhaled doses of 0, 1, 2, or 5 mg administered 4 times daily for about six months. Patients are medically monitored for clinical symptoms of asthma throughout the study, including frequency and severity of acute asthma attacks. […] In addition exhaled nitric oxide (NO) and carbon monoxide (CO) levels may be measured at more frequent intervals, such as every other week. Forced expiratory volume (FEV) and forced inspiratory volume (FIV) are also evaluated to measure airway patency as a direct measure of clinical morbidity and to determine correlation the histopathologic and other indicators of clinical disease, such as exhaled NO Immunhistopathologic examination of lung tissue biopsy samples taken at the same intervals as the blood samples are also examined for histopathologic evidence of extent and histology of inflammation.

[3] = system: CRE dependent transcription; assay: CRE luciferase reporter in stably transfected A549 cells; assay type: cell-based, human
Method: The expression of inflammatory genes was then evaluated in cells transformed with luciferase reporter genes containing sites for transcription factors (Tf, Tfs). The A549 cells were stably transfected by routine methods with luciferase reporters containing the transcription factors NF-κB, TRE (AP-1, TPA responsive element) and CRE (cAMP responsive element). Luciferase activity of cell lysates resuspended in […] cell lysis buffer mixed (40 mml resuspended lysate: 40 mml assay reagent) was measured using the Luciferase Assay System (Promega), with emitted light measured by a Turner DesignsTD-20/20 luminometer (Steptech Instruments Ltd., Stevenage, U.K.)

## Oc1ccc(/C=C/c2cc(O)cc(O)c2)cc1 [Resveratrol, 3,5,4′-trihydroxystilbene]
[1]
  EC50: 22 ± 8 µM
[2]; oral or pulmonary resveratrol vs pulmonary budenoside
  efficacy in treating COPD compared with inhaled steroids: more effective for treating COPD than inhaled steroids
[2]; oral or pulmonary resveratrol
  systemic effects compared with inhaled glucocorticosteroids: fewer systemic effects
IL-8 release, A549 cells
  EC50: 72 ± 11 µM
Patients with asthma
  efficacy in treating asthma: effective for treating asthma
[3]
  extent of inhibition of CRE dependent transcription: 91%
[3]; Homo sapiens, read-out: EC50 for inhibition of CRE dependent transcription
  EC50: 30 ± 17 µM
